Experiments:
[1] = tested on: human CD4+ T cells; test: Human peripheral blood CD4+ T cell cultures and cytokine analysis (Th17 polarization); type: cell-based; details: secreted IL-17A, 5 days Th17 polarization
Procedure: Human biological samples were cryopreserved human CD4+ T cells purchased from AllCells, LLC and Stemcell Technologies, Inc. The CD4+ T cells were differentiated to the Th17 subtype by culturing for 5 days in tissue culture plates coated with anti-CD3 antibody (2 μg/mL) in Iscove's modified Dulbecco's medium (IMDM) containing 10% HI-FBS, 55 μM 2-mercaptoethanol and soluble anti-CD28 (3 μg/mL) in the presence of a Th17 skewing cocktail, including IL-1β (10 ng/mL), IL-6 (30 ng/mL), TGFβ (0.5 ng/mL), IL-21 (10 ng/mL), IL-23 (10 ng/mL), anti-IFNγ (10 μg/mL) and anti-IL-4 (10 μg/mL). To examine compound effects on Th17 polarization, freshly thawed CD4+ cells in IMDM supplemented with all Th17 polarization cocktail constituents (above) were seeded at low cell density (20,000 cells/well) directly into anti-CD3 coated round bottom 96-well plates already containing serially diluted compounds. Cells were incubated undisturbed for 5 days at 37° C. Immediately following culture, supernatant was analyzed for secreted IL-17A and IL-22 protein by MSD electrochemiluminescent cytokine assays (Mesoscale Discovery) and ELISA (Quantikine assay, R&D Systems), respectively. Compound treatment(s) were performed in triplicate. Results are presented as the mean±SD or as mean percent inhibition (±SD) relative to the response to stimulus alone.

[2] = target: T1, RORγ-LBD (Homo sapiens, UniProt P51449); test: Fluorescence Energy Transfer (FRET) assay; type: biochemical; details: mean of multiple test results if tested more than once; read-out: pIC50 in the FRET assay (converted)
T1 construct: adding an appropriate amount of biotinylated RORγ-LBD and APC-labeled streptavidin
T1 sequence (P51449 269-508 limits assumed): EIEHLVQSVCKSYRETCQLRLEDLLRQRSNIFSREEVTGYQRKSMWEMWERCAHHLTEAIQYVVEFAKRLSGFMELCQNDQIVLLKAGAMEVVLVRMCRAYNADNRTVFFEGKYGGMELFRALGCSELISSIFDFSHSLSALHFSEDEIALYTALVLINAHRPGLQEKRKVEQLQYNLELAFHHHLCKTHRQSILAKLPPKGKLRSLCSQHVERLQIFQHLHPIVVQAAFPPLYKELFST
Procedure: The assays were performed in an assay buffer consisting of 50 mM NaF, 50 mM 3-(N-morpholino)propanesulfonic acid, pH 7.5, 50 μM 3-[(3-cholamidopropyl)dimethylammonio]-propanesulfonate, 0.1 mg/mL bovine serum albumin, and 10 mM dithiothreitol in 384-well plates (Greiner 784076, Longwood, Fla.). The total volume was 10 μL/well. The europium-labeled SRC1 solution was prepared by adding an appropriate amount of biotinylated SRC and europium labeled streptavidin (PerkinElmer Life and Analytical Sciences, Waltham, Mass.) into assay buffer, with final concentrations of 27 and 3.3 nM, respectively. The allophycocyanin (APC)-labeled-LBD solution was prepared by adding an appropriate amount of biotinylated RORγ-LBD and APC-labeled streptavidin (CR130-100; PerkinElmer Life and Analytical Sciences) at a final concentration of 33 nM each. After 15 min of incubation at room temperature, a 20-fold excess of biotin was added to block the remaining free streptavidin. […] The plates were incubated for 1 h at room temperature and then read on ViewLux (PerkinElmer Life and Analytical Sciences) in LANCE mode configured for europeum-APC labels. Data were collected and analyzed by Activitybase.

For `Cc1ncc(C(=O)Nc2cc(Cl)cc(CN3CCN(C(=O)CC4CC4)[C@@H](C)C3)c2C)cc1F` [Example 80, (S)—N-(5-chloro-3-((4-(2-cyclopropylacetyl)-3-methylpiperazin-1-yl)methyl)-2-methylphenyl)-5-fluoro-6-methylnicotinamide], the IC50 ([1]; Homo sapiens, CD4+ T, 120 h, read-out: IL17A pIC50 (converted)) was 28.8 nM, the “Inhibition Activity (ASSYM MAX)” value [1] was 94 and the IC50 [2] was ~50.1 nM.

From US9902735B2, “Heteroaryl substituted compounds as RORγ inhibitors” (GlaxoSmithKline Intellectual Property Developement Limited, priority 2014, dated 2018)
